In ChEMBL document CHEMBL1201862, “PubChem BioAssay data set” (2004):
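Cultured in 96-well plates, cells were exposed to test compound for 48 hours across five concentrations. GI50 = concentration required for 50% inhibition of growth.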 Activity calls are given as the source filed them. Cut-off read from the data, not from the text of the source: active = GI50 up to about 1.1 µM and inactive = higher.

Experiments:
Test in all cases: growth of human tumour cells (NCI), 48 h
ACHN = tested on: ACHN
NCI/ADR-RES = tested on: NCI/ADR-RES
SNB-75 = tested on: SNB-75
SN12C = tested on: SN12C
UACC-62 = tested on: UACC-62
TK-10 = tested on: TK-10
SF-295 = tested on: SF-295
NCI-H23 = tested on: NCI-H23
UACC-257 = tested on: UACC-257
SNB-19 = tested on: SNB-19
HT-29 = tested on: HT-29
MDA-MB-231 = tested on: MDA-MB-231
A549 = tested on: A549
MDA-N = tested on: MDA-N
786-0 = tested on: 786-0
UO-31 = tested on: UO-31
OVCAR-4 = tested on: OVCAR-4
Malme-3M = tested on: Malme-3M
HOP-92 = tested on: HOP-92

SMILES | GI50 (ACHN) | GI50 (NCI/ADR-RES) | GI50 (SNB-75) | GI50 (SN12C) | GI50 (UACC-62) | GI50 (TK-10) | GI50 (SF-295) | GI50 (NCI-H23) | GI50 (UACC-257) | GI50 (SNB-19) | GI50 (HT-29) | GI50 (MDA-MB-231) | GI50 (A549) | GI50 (MDA-N) | GI50 (786-0) | GI50 (UO-31) | GI50 (OVCAR-4) | GI50 (Malme-3M) | GI50 (HOP-92)
c1ccc2c3c(c(N4CCOCC4)nc2c1)CCCC3 | 41.2 µM (inactive) | 29.9 µM (inactive) | 15.4 µM (inactive) | 34.2 µM (inactive) | 55.7 µM (inactive) | 63.4 µM (inactive) | 39.6 µM (inactive) | 56.5 µM (inactive) | 40.8 µM (inactive) | 36.9 µM (inactive) | 22.7 µM (inactive) | 32.1 µM (inactive) | 43.1 µM (inactive) | 50.4 µM (inactive) | 32.8 µM (inactive) | 41.2 µM (inactive) | 49.9 µM (inactive) | 75.2 µM (inactive) | 67.1 µM (inactive)
C=C1CC(COc2ccc3c(C)c(Cl)c(=O)oc3c2)(c2ccccc2)OC1=O (stereo not given) | 2.86 µM (inactive) | 2.97 µM (inactive) | 3.47 µM (inactive) | 6.1 µM (inactive) | 1.74 µM (inactive) | 1.53 µM (inactive) | 7.13 µM (inactive) | 1.57 µM (inactive) | 1.61 µM (inactive) | 13.8 µM (inactive) | 1.24 µM (inactive) | 3.78 µM (inactive) | 11.9 µM (inactive) | 2.07 µM (inactive) | 1.51 µM (inactive) | 3.33 µM (inactive) | 1.67 µM (inactive) | 1.67 µM (inactive) | 1.47 µM (inactive)
CN(C)c1ccc(C=c2c3ccccc3n3c2c2c([n+]3C)CCCC2)cc1 | 0.314 µM (active) | 3.17 µM (inactive) | 0.0796 µM (active) | 0.146 µM (active) | 0.42 µM (active) | 0.207 µM (active) | 0.0991 µM (active) | 0.269 µM (active) | 0.301 µM (active) | 0.0698 µM (active) | 0.114 µM (active) | 0.575 µM (active) | 0.0728 µM (active) | 0.1 µM (active) | 0.261 µM (active) | 1.12 µM (inactive) | 0.255 µM (active) | 0.17 µM (active) | 0.046 µM (active)
Nc1nc(Cl)cc(NCC2(CO)CC(O)C2)n1 (stereo not given) | > 100 µM (inactive) | > 100 µM (inactive) | > 100 µM (inactive) | > 100 µM (inactive) | > 100 µM (inactive) | > 100 µM (inactive) | > 100 µM (inactive) | > 100 µM (inactive) | > 100 µM (inactive) | > 100 µM (inactive) | > 100 µM (inactive) | > 100 µM (inactive) | > 100 µM (inactive) | > 100 µM (inactive) | > 100 µM (inactive) | > 100 µM (inactive) | > 100 µM (inactive) | > 100 µM (inactive) | > 100 µM (inactive)
CC(C)OCC(O)COc1ccc2ccc(=O)oc2c1 (stereo not given) | > 100 µM (inactive) | > 100 µM (inactive) | > 100 µM (inactive) | > 100 µM (inactive) | > 100 µM (inactive) | > 100 µM (inactive) | > 100 µM (inactive) | > 100 µM (inactive) | > 100 µM (inactive) | > 100 µM (inactive) | > 100 µM (inactive) | > 100 µM (inactive) | > 100 µM (inactive) | > 100 µM (inactive) | > 100 µM (inactive) | > 100 µM (inactive) | > 100 µM (inactive) | > 100 µM (inactive) | > 100 µM (inactive)
CC(C)=CCC[C@@H](C)C1=C(O)C(=O)C(C)=C(Nc2ccccc2Cl)C1=O | 19.1 µM (inactive) | 1.82 µM (inactive) | 8.75 µM (inactive) | 25.1 µM (inactive) | 12.2 µM (inactive) | 33.7 µM (inactive) | 6.71 µM (inactive) | 12.5 µM (inactive) | 25.9 µM (inactive) | 30.7 µM (inactive) | 13 µM (inactive) | 40.4 µM (inactive) | 19 µM (inactive) | 21.5 µM (inactive) | 12.9 µM (inactive) | 12.4 µM (inactive) | 11.2 µM (inactive) | 11.3 µM (inactive) | 27.8 µM (inactive)
CC(C)(C)/N=c1/n(C(C)(C)C)oc(=O)n1-c1ccccc1 | > 50 µM (inactive) | > 50 µM (inactive) | 35.6 µM (inactive) | > 50 µM (inactive) | > 50 µM (inactive) | > 50 µM (inactive) | > 50 µM (inactive) | > 50 µM (inactive) | > 50 µM (inactive) | > 50 µM (inactive) | > 50 µM (inactive) | > 50 µM (inactive) | > 50 µM (inactive) | > 50 µM (inactive) | > 50 µM (inactive) | > 50 µM (inactive) | > 50 µM (inactive) | > 50 µM (inactive) | > 50 µM (inactive)
COc1ccc(NC(=O)CC(=O)N2N=C(C)C(/N=N/c3ccc(C(=O)O)cc3)C2=O)cc1 (stereo not given) | > 100 µM (inactive) | > 100 µM (inactive) | 77.3 µM (inactive) | > 100 µM (inactive) | > 100 µM (inactive) | > 100 µM (inactive) | > 100 µM (inactive) | > 100 µM (inactive) | > 100 µM (inactive) | > 100 µM (inactive) | > 100 µM (inactive) | > 100 µM (inactive) | > 100 µM (inactive) | > 100 µM (inactive) | > 100 µM (inactive) | > 100 µM (inactive) | > 100 µM (inactive) | > 100 µM (inactive) | > 100 µM (inactive)
Cn1c(N)c(/C=C/C(=O)Oc2ccccc2)c(=O)n(C)c1=O | 50.7 µM (inactive) | 75.3 µM (inactive) | 24.2 µM (inactive) | 45.6 µM (inactive) | > 100 µM (inactive) | > 100 µM (inactive) | 33.7 µM (inactive) | > 100 µM (inactive) | > 100 µM (inactive) | 59.3 µM (inactive) | > 100 µM (inactive) | > 100 µM (inactive) | > 100 µM (inactive) | > 100 µM (inactive) | 78.9 µM (inactive) | 49.7 µM (inactive) | > 100 µM (inactive) | > 100 µM (inactive) | 22.3 µM (inactive)
O=C(CN1CCCCC1)c1ccc2c(c1)Sc1ccccc1O2 | 14.1 µM (inactive) | 16.7 µM (inactive) | 11.6 µM (inactive) | 19.2 µM (inactive) | 11.5 µM (inactive) | 18.9 µM (inactive) | 15.7 µM (inactive) | 13.1 µM (inactive) | 18.5 µM (inactive) | 13.7 µM (inactive) | 10.9 µM (inactive) | 16.7 µM (inactive) | 14.2 µM (inactive) | 15.8 µM (inactive) | 14.8 µM (inactive) | 10.4 µM (inactive) | 13 µM (inactive) | 17.6 µM (inactive) | 7.64 µM (inactive)
O=C(c1ccc(Cl)cc1Cl)N(Cc1cccnc1)C(=S)N(Cc1cccnc1)C(=O)c1ccc(Cl)cc1Cl | 9.62 µM (inactive) | 15.5 µM (inactive) | 4.07 µM (inactive) | 4.68 µM (inactive) | 10.3 µM (inactive) | 3.77 µM (inactive) | 22.2 µM (inactive) | 12.2 µM (inactive) | 6.32 µM (inactive) | 12 µM (inactive) | 2.38 µM (inactive) | 2.75 µM (inactive) | 19 µM (inactive) | 2.31 µM (inactive) | 2.12 µM (inactive) | 4.26 µM (inactive) | 2.72 µM (inactive) | 16.4 µM (inactive) | 3.83 µM (inactive)
CN(C)/C=N/c1ccc2c3c(cccc13)-c1ccccc1-2 | 16 µM (inactive) | 14.9 µM (inactive) | 13 µM (inactive) | 12.6 µM (inactive) | 18.6 µM (inactive) | 13.8 µM (inactive) | 14.4 µM (inactive) | 17.2 µM (inactive) | 17.3 µM (inactive) | 14.4 µM (inactive) | 10 µM (inactive) | 14.3 µM (inactive) | 11.5 µM (inactive) | 14.5 µM (inactive) | 12.6 µM (inactive) | 5.22 µM (inactive) | 15.7 µM (inactive) | 18.5 µM (inactive) | 12.4 µM (inactive)
O=C(O)c1c(CC(Cc2ccccc2)C(=O)O)ccc2c1CCC2 (stereo not given) | > 100 µM (inactive) | > 100 µM (inactive) | > 100 µM (inactive) | > 100 µM (inactive) | 4.11 µM (inactive) | > 100 µM (inactive) | > 100 µM (inactive) | > 100 µM (inactive) | > 100 µM (inactive) | > 100 µM (inactive) | > 100 µM (inactive) | > 100 µM (inactive) | > 100 µM (inactive) | > 100 µM (inactive) | > 100 µM (inactive) | > 100 µM (inactive) | > 100 µM (inactive) | > 100 µM (inactive) | > 100 µM (inactive)
CN1CCN(c2nc3cc(F)ccc3n3cccc23)CC1 | 31.6 µM (inactive) | 50.7 µM (inactive) | 29 µM (inactive) | 48.5 µM (inactive) | 29.4 µM (inactive) | 39.6 µM (inactive) | 21.2 µM (inactive) | 36 µM (inactive) | 26.6 µM (inactive) | 60.3 µM (inactive) | 24.9 µM (inactive) | 44.2 µM (inactive) | 36.9 µM (inactive) | 30.4 µM (inactive) | 40.4 µM (inactive) | 40.1 µM (inactive) | 30.3 µM (inactive) | 25.3 µM (inactive) | 30.2 µM (inactive)
C/C(=N\N=C(/S)SCc1ccccc1)c1ccccn1 | < 0.01 µM (active) | < 0.01 µM (active) | 2.92 µM (inactive) | < 0.0269 µM (active) | 0.463 µM (active) | 0.339 µM (active) | 0.514 µM (active) | < 0.01 µM (active) | < 0.01 µM (active) | 2.97 µM (inactive) | < 0.01 µM (active) | < 0.01 µM (active) | 0.17 µM (active) | 0.971 µM (active) | < 0.01 µM (active) | 0.0183 µM (active) | < 0.01 µM (active) | 0.665 µM (active) | < 0.0105 µM (active)
